Experiment [1] concerns transglutaminase (TGase). Description: Measurement of TG (TGase inhibitory activity, monodansyl cadaverine / N,N-dimethylcasein fluorescence, FDSS 3000). In kind it is biochemical. The protocol:
For example, the method described in the Example can be performed.
The compound of the present invention (10 mM, 1 μL) was taken in a 96-well plate (Nunc, 96 Well Black Plate with Clear Bottom), an enzyme reaction solution (100 mM HEPES-NaOH, pH 7.5, 1 mM CaCl2, 20 μM monodansyl cadaverine, 0.05 mg/mL N,N-dimethylcasein, 5 μg/mL TGase) (0.1 ml) was added and the mixture was sufficiently mixed without making foams. The mixture was set on a fluorescence drug screening system FDSS 3000 (Hamamatsu Photonics K.K.), and changes in the fluorescence wavelength per unit time at 340 nm were measured, based on which the TGase inhibitory activity of the compound of the present invention was calculated. As a control, change in the fluorescence when 1 μL of DMSO (dimethyl sulfoxide) was added instead of the compound of the present invention was taken as 100, and TG50 was when the activity decreased to half due to the compound of the present invention.

The subject of experiment [2] is Truncated N-terminal huntington 150 Q-EGFP-Neuron 2a cells. Description: Measurement of x-Fold (polyglutamine aggregation inhibitory activity). In kind it is cell-based. As to the method:
In the present invention, the polyglutamine aggregation inhibitory activity (x-Fold) can be measured, for example, by the method described in the Example.
The number of the aggregated cells, and the total number of cells were counted by Array Scan V T1 (manufactured by Cellomics, Pittuburg, USA), and the ratio of the aggregated cells to the total number of cells was determined (x-Fold). […]

Where [3] appears, read: TGase activity with compound (10 mM, 1 μL in 0.1 ml enzyme reaction solution), DMSO control taken as 100.
Setting [4] is: TGase inhibitory activity value, Table 1.
Setting [5] is: polyglutamine aggregation inhibitory activity, Table 1.
Where [6] appears, read: ratio of aggregated cells to total number of cells, compound 20 μM, 20 hr, almost 1 without compound, smaller = stronger inhibition.
The mark [7] stands for this setting: TGase inhibitory activity measurement, unit not given.
[8] abbreviates: polyglutamine aggregation, Truncated N-terminal huntington 150 Q-EGFP-Neuron 2a cells.

In the case of `OB(c1ccccc1)c1cc(B(O)c2ccccc2)cc(B(O)c2ccccc2)c1` [Example 130, 1,3,5-tri(phenylhydroxyboryl)benzene], the “TGase activity remaining (% of DMSO control = 100)” value in experiment [1] (setting [3]) and in experiment [1] (setting [4]) was 116 each time. The x-Fold in experiment [2] (setting [5]) and in experiment [2] (setting [6]) was 0.85 throughout.

Take `Nc1ccccc1C(=O)OB(c1ccccc1)c1ccccc1` [Example 219, diphenyl(2-aminophenyl carboxylate-O,N)borane]: the “TGase activity remaining (% of DMSO control = 100)” value in experiment [1] (setting [3]) and in experiment [1] (setting [4]) was 91 in each case. Besides, the x-Fold in experiment [2] (setting [5]) and in experiment [2] (setting [6]) was 0.88 in each case.

On to `OB(c1ccc(COCc2ccc(B(O)c3ccc(C(F)(F)F)cc3)cc2)cc1)c1ccc(C(F)(F)F)cc1` [Example 143, bis(4-trifluoromethylphenylhydroxyboryl 4-benzyl)ether], for which the “TGase activity remaining (% of DMSO control = 100)” value in experiment [1] (setting [3]) and in experiment [1] (setting [4]) was 118 in each case. Besides, the x-Fold in experiment [2] (setting [5]) and in experiment [2] (setting [6]) was 0.90 in each case.

For the compound `NCCOB(c1ccccc1)c1ccc2ccccc2c1-c1c(B(OCCN)c2ccccc2)ccc2ccccc12` [Example 360, 2,2′-di(phenylaminoethoxyboryl)-1,1′-binaphthyl], the “TGase activity remaining (% of DMSO control = 100)” value in experiment [1] (setting [3]) and in experiment [1] (setting [4]) was 88 throughout. Further, the x-Fold in experiment [2] (setting [5]) and in experiment [2] (setting [6]) was 1.05 each time.

On to `N#Cc1ccc(B(O)c2cccc(COCc3cccc(B(O)c4ccc(C#N)cc4)c3)c2)cc1` [Example 345, bis(3-(4-cyanophenylhydroxyboryl)benzyl)ether], for which the “TGase activity remaining (% of DMSO control = 100)” value in experiment [1] (setting [3]) and in experiment [1] (setting [4]) was 95 in each case. Further, the x-Fold in experiment [2] (setting [5]) and in experiment [2] (setting [6]) was 0.92 throughout.

Consider “bis((4,4′-phenyl methylaminoethoxyboryl)benzyloxybenzyl)methylaminoethoxyborane [Example 190]”, for which the “TGase activity remaining (% of DMSO control = 100)” value in experiment [1] (setting [3]) and in experiment [1] (setting [4]) was 99 each time. Also, the x-Fold in experiment [2] (setting [5]) and in experiment [2] (setting [6]) was 1.05 throughout.

For the compound `OB(c1ccsc1)c1ccc2sc3ccc(B(O)c4ccsc4)cc3c2c1` [Example 406, 2,8-di(3-thiophenylhydroxyboryl)dibenzothiophene], the “TGase activity remaining (% of DMSO control = 100)” value in experiment [1] (setting [3]) and in experiment [1] (setting [7]) was 61 each time. Also, the x-Fold in experiment [2] (setting [8]) and in experiment [2] (setting [6]) was 0.85 each time.

Turning to `CNCCOB(c1cc(Cl)ccc1F)c1cc(Cl)ccc1F` [Example 101, methylaminoethyl bis(3-chloro-6-fluorophenyl)borinate], the “TGase activity remaining (% of DMSO control = 100)” value in experiment [1] (setting [3]) and in experiment [1] (setting [4]) was 122 throughout. Further, the x-Fold in experiment [2] (setting [5]) and in experiment [2] (setting [6]) was 1.02 each time.

`OB(c1ccc(Cl)c(F)c1)c1ccc(Cl)c(F)c1` [Example 231, di(3-fluoro-4-chlorophenyl)borinic acid]: the “TGase activity remaining (% of DMSO control = 100)” value in experiment [1] (setting [3]) was 94; in experiment [1] (TGase inhibitory activity value, Table 1, listed as 4140) it was 94. Besides, the x-Fold in experiment [2] (polyglutamine aggregation inhibitory activity, Table 1, listed as 4140) stood at 1.01; in experiment [2] (setting [6]), 1.01.

Regarding `NCCOB(c1cc(Cl)ccc1F)c1cc(Cl)ccc1F` [Example 100, aminoethyl bis(3-chloro-6-fluorophenyl)borinate], the “TGase activity remaining (% of DMSO control = 100)” value in experiment [1] (setting [3]) and in experiment [1] (setting [4]) was 119 throughout. The x-Fold in experiment [2] (setting [5]) and in experiment [2] (setting [6]) was 0.97 throughout.

As for `N#Cc1ccc(B(O)c2ccc(C#N)cc2)cc1` [Example 102, bis(4-cyanophenyl)borinic acid], the “TGase activity remaining (% of DMSO control = 100)” value in experiment [1] (setting [3]) amounted to 72; in experiment [1] (TGase inhibitory activity value, Table 1, listed as 5009), 72. Further, the x-Fold in experiment [2] (polyglutamine aggregation inhibitory activity, Table 1, listed as 5009) is given as 1.10; in experiment [2] (setting [6]) it was 1.10.

Regarding `Cc1ccc(B(OC(CN)c2ccccc2)c2ccc(C)c(Cl)c2)cc1Cl` (centres unmarked) [Example 209, di(3-chloro-4-methylphenyl)1-phenyl 2-aminoethylborinate], the “TGase activity remaining (% of DMSO control = 100)” value in experiment [1] (setting [3]) and in experiment [1] (setting [4]) was 1 throughout. In addition, the x-Fold in experiment [2] (setting [5]) and in experiment [2] (setting [6]) was 0.98 in each case.

For `NCC(=O)OB(c1ccccc1)c1ccc(Oc2ccc(B(OC(=O)CN)c3ccccc3)cc2)cc1` [Example 129, di((phenylglycine-O,N boryl)phenyl)ether], in experiment [1] (setting [3]), the “TGase activity remaining (% of DMSO control = 100)” value was determined as 101. Further, the x-Fold in experiment [2] (setting [6]) is recorded as 0.78.

As to “tetramethylrhodamine aminoethylaminoethyl diphenylborinate [Example 162]”, the “TGase activity remaining (% of DMSO control = 100)” value in experiment [1] (setting [3]) and in experiment [1] (setting [4]) was −2 in each case. Further, the x-Fold in experiment [2] (setting [5]) and in experiment [2] (setting [6]) was 0.85 each time.

On to `OB(c1ccccc1)c1cccc(COCc2ccccc2B(O)c2ccccc2)c1` [Example 330, (2-(phenylhydroxyboryl)benzyl)(3-(phenylhydroxyboryl)benzyl)ether], for which the “TGase activity remaining (% of DMSO control = 100)” value worked out at 89 in experiment [1] (setting [3]) and 89 in experiment [1] (TGase inhibitory activity value, Table 1, listed as 655). Moreover, the x-Fold is listed as 0.90 in experiment [2] (polyglutamine aggregation inhibitory activity, Table 1, listed as 655) and 0.90 in experiment [2] (setting [6]).

Take `NCCOB(c1ccc(Oc2ccc(B(OCCN)c3cccc4ccccc34)cc2)cc1)c1cccc2ccccc12` [Example 441, bis(4,4′-(naphthyl-aminoethoxyboryl)phenyl)ether]: the “TGase activity remaining (% of DMSO control = 100)” value in experiment [1] (setting [3]) and in experiment [1] (setting [7]) was −1 in each case. For the same compound, the x-Fold in experiment [2] (setting [8]) and in experiment [2] (setting [6]) was 0.58 throughout.

For `NCCC(N)C(=O)OB(c1ccccc1)c1ccccc1` (centres unmarked) [Example 178], the “TGase activity remaining (% of DMSO control = 100)” value in experiment [1] (setting [3]) is recorded as 142; in experiment [1] (TGase inhibitory activity value, Table 1, listed as 2039) it was 142. Moreover, the x-Fold is 0.89 in experiment [2] (polyglutamine aggregation inhibitory activity, Table 1, listed as 2039) and 0.89 in experiment [2] (setting [6]).

In the case of `NCCCCC(N)C(=O)OB(c1ccccc1)c1ccc(Oc2ccc(B(OC(=O)C(N)CCCCN)c3ccccc3)cc2)cc1` (centres unmarked) [Example 437, bis(4,4′-(phenyl-lysineboryl)phenyl)ether], the “TGase activity remaining (% of DMSO control = 100)” value in experiment [1] (setting [3]) and in experiment [1] (setting [7]) was 119 in each case. The x-Fold in experiment [2] (setting [8]) and in experiment [2] (setting [6]) was 0.85 throughout.

As for `CC(C)(C)c1cc(B(OCCN)c2ccccc2)c2c(c1)C(C)(C)c1cc(C(C)(C)C)cc(B(OCCN)c3ccccc3)c1O2` [Example 378, 4,5-di(phenylaminoethoxyboryl)-2,7-di-tert-butyl-9,9-dimethylxanthrene], the “TGase activity remaining (% of DMSO control = 100)” value in experiment [1] (setting [3]) and in experiment [1] (setting [4]) was 88 throughout. The x-Fold in experiment [2] (setting [5]) and in experiment [2] (setting [6]) was 0.79 each time.

Turning to `COCOCc1ccc(B(OCCN(C)C)c2ccc(Oc3ccc(B(OCCN(C)C)c4ccccc4)cc3)cc2)cc1` [Example 167, (4-(phenyl-dimethylaminoethoxyboryl)phenyl)-(4′-(methoxymethoxymethylphenyl-dimethylaminoethoxyboryl)phenyl)ether], the “TGase activity remaining (% of DMSO control = 100)” value in experiment [1] (setting [3]) and in experiment [1] (setting [4]) was 21 each time. Further, the x-Fold in experiment [2] (setting [5]) and in experiment [2] (setting [6]) was 0.71 each time.

For `NCCOB(c1ccc(F)c(Cl)c1)c1ccc(F)c(Cl)c1` [Example 86, 2-aminoethyl bis(3-chloro-4-fluorophenyl)borinate], the “TGase activity remaining (% of DMSO control = 100)” value was 103 in experiment [1] (setting [3]) and 103 in experiment [1] (TGase inhibitory activity value, Table 1, listed as 6015). Besides, the x-Fold in experiment [2] (polyglutamine aggregation inhibitory activity, Table 1, listed as 6015) stood at 0.99; in experiment [2] (setting [6]), 0.99.

Regarding `NCCOB(c1ccc(C(F)(F)F)cc1)c1ccc(C(F)(F)F)cc1` [Example 181, di(trifluoromethylphenyl) 2-aminoethylborinate], in experiment [1] (setting [3]), the “TGase activity remaining (% of DMSO control = 100)” value is listed as 54. Moreover, in experiment [2] (setting [6]), the x-Fold is 0.69.

As for `NCCC(N)C(=O)OB(c1ccc(Cl)c(F)c1)c1ccc(Cl)c(F)c1` (centres unmarked) [Example 95, di(3-fluoro-4-chlorophenyl)(2,4-diaminolactonate-O,N)borane], the “TGase activity remaining (% of DMSO control = 100)” value in experiment [1] (setting [3]) and in experiment [1] (setting [4]) was 114 each time. Also, the x-Fold in experiment [2] (setting [5]) and in experiment [2] (setting [6]) was 0.88 throughout.

Consider `Fc1cc(B(OCCNc2ccccc2)c2ccc(Cl)c(F)c2)ccc1Cl` [Example 237, di(4-chloro-3-fluorophenyl) 2-phenylaminoethyl borinate], for which the “TGase activity remaining (% of DMSO control = 100)” value in experiment [1] (setting [3]) and in experiment [1] (setting [4]) was 88 throughout. Besides, the x-Fold in experiment [2] (setting [5]) and in experiment [2] (setting [6]) was 1.15 in each case.

These data come from patent US8853424B2 (Japan Science and Technology Agency, priority 2008, dated 2014).
